According to patent US20110319463A1, “PREVENTIVE OR THERAPEUTIC AGENTS FOR OPTIC NERVE DISORDERS COMPRISING 4,6-DICHLORO-1H-INDOLE-2-CARBOXYLIC ACID DERIVATIVES OR SALTS THEREOF AS ACTIVE INGREDIENTS” (Saten Pharamaceuticals Co., Ltd., priority 2009, published 2011):

Experiments:
Format in all cases: in vivo
[1] = test system: neurofilament light chain (NFL) expression level in the retinal tissue; assay: NMDA-induced rat retinal disorder model, quantitative PCR evaluation of NFL expression after intravitreous administration; details: 10 nmol NMDA mixed with 15 nmol/eye compound intravitreously, retina isolated 1 day after, NFL corrected by GAPDH, non-treatment group = 100%, NMDA group = 0%
Procedure: In the NMDA-induced rat retinal disorder model, the efficacy of the test compounds were evaluated using as an index the expression level in the retinal tissue of the neurofilament light chain (hereinafter referred to also as “NFL”) which is one of major constituents of the optic nerve axon and is considered to be important in maintaining the morphology of the optic nerve axon. The rat 1 day after the intravitreous administration of NMDA was treated with a 100 mg/kg sodium pentobarbital injection solution by an intraperitoneal administration to accomplish a systemic anesthesia and then the eyeballs were enucleated, and the retina was isolated. […] RR037B). In accordance with the instruction attached to QuantiTect Multiplex PCR Kit (1000) (QIAGEN, catalog No. 204545), QuantiTect Multiplex PCR Master Mix, the synthesized cDNA, the primers/probe for NFL (Sigma, “Ordermade”) and the primers/probe for glycerylaldehyde 3-phosphate dehydrogenase (hereinafter referred to also as “GAPDH”) (Applied Biosystems, Catalog No. 4352338E) were mixed, and a quantitative PCR machine (Applied Biosystems, Catalog No. 7500-03) was employed to conduct a PCR reaction, whereby measuring the expression levels of NFL and GAPDH. From the NFL and GAPDH expression levels thus obtained, a relative NFL expression level was calculated by correcting the NFL expression level based on the housekeeping gene GAPDH expression level in accordance with Equation 2. […] Each group included 1 animal (2 eyeballs). % Relative NFL expression level=(NFL expression level/GAPDH expression level) [Equation 2] % NFL recovery=(EX−EO)/(EP−EO)×100 [Equation 3] wherein EP is a relative NFL expression level in the non-treatment group, EO is a relative NFL expression level in the group of 10 nmol intravitreous NMDA administration and EX is a relative NFL expression level in the group of intravitreous administration of 10 nmol NMDA mixed with each compound. 5 μL of an NMDA solution dissolved in a 30% (v/v) DMSO-containing purified water (10 nmol as NMDA) was administered intravitreously. […]

[2] = Body weight evaluation in NMDA-induced rat retinal disorder model after oral administration; details: 10 nmol NMDA intravitreously, 30 mg/kg orally twice a day for 3 days; for Weight gain (average): from day of NMDA administration to eyeball enucleation, non-treatment group 14.1
Procedure: Over a period from the day of the intravitreous NMDA administration through the eyeball enucleation, each individual animal was weighed once a day. Based on the body weight of the individual animal on the day of the intravitreous NMDA administration, the difference from the body weight on the day of the eyeball enucleation was calculated and the weight gain of each individual animal was calculated (average value). Each group included 4 animals. 5 μL of an NMDA solution dissolved in PBS (10 nmol as NMDA) was administered intravitreously. A 0.5% (w/v) aqueous solution of methyl cellulose was given by a repetitive oral administration twice a day in a volume of 10 mL/kg for 3 days from the day of the intravitreous NMDA administration until 2 days later. On the day of the intravitreous NMDA administration, a 0.5% (w/v) aqueous solution of methyl cellulose was given orally two times which were about 1 hour before the intravitreous NMDA administration and 1 to 2 hours. 5 μL of an NMDA solution dissolved in PBS (10 nmol as NMDA) was administered intravitreously. Each test compound suspended in 0.5% (w/v) methyl cellulose solution was given at a dose of 30 mg/kg by a repetitive oral administration twice a day in a volume of 10 mL/kg for 3 days from the day of the intravitreous NMDA administration until 2 days later. On the day of the intravitreous NMDA administration, each test compound suspended in 0.5% (w/v) methyl cellulose solution was given orally at a dose of 30 mg/kg two times which were about 1 hour before the NMDA administration and 1 to 2 hours. As a control compound, memantine was employed. 5 μL of an NMDA solution in PBS (10 nmol as NMDA) was administered intravitreously. Memantine dissolved in 0.5% (w/v) methyl cellulose solution was given at a dose of 30 mg/kg by a repetitive oral administration twice a day in a volume of 10 mL/kg for 3 days from the day of the intravitreous NMDA administration until 2 days later. On the day of the intravitreous NMDA administration, memantine dissolved in 0.5% (w/v) methyl cellulose solution was given orally at a dose of 30 mg/kg two times which were about 1 hour before the NMDA administration and 1 to 2 hours.

[3] = test system: cell count in the retinal ganglion cell layer; assay: NMDA-induced rat retinal disorder model, retinal section evaluation (GCL cell count) after oral administration; details: 10 nmol NMDA intravitreously, 30 mg/kg orally twice a day for 3 days, eyeballs enucleated 3 days after NMDA, non-treatment group = 100%, NMDA + base = 0%
Source text: A NMDA-induced rat retinal disorder model (Invest. Ophthalmol. Vis. Sci., 2003; 44:385-392) employed widely as an optic nerve disorder model was employed to evaluate the usefulness (retinal nerve cell death inhibiting effect) of the present compound.
A rat [Slc:SD, male, about 7 week-old) was allowed to inhale a gas containing 3 to 4% (v/v) vaporized isoflurane at a rate of 1 to 1.5 L air/min to accomplish a systemic introducing anesthesia, followed by a maintaining anesthesia with 2 to 3% (v/v) isoflurane. Thereafter, 5 μl of a solution of NMDA (Sigma, catalog No. M3262) dissolved at 2 mmol/L in a phosphate buffer (hereinafter referred to also as “PBS”) was given intravitreously (10 nmol as NMDA).
The rat 3 days after the intravitreous administration of the NMDA solution was treated with a 100 mg/kg sodium pentobarbital injection solution by an intraperitoneal administration to accomplish a systemic anesthesia and then the eyeballs were enucleated. The enucleated eyeballs were fixed in a 25%(w/v) glutaraldehyde: 10% (w/v) neutral buffered formalin=1:9 mixture. The fixed eyeballs were embedded with a paraffin and then sliced into retinal sections (3 μm in thickness), which were then subjected to a hematoxylin and eosin staining. Eight retinal sections were taken per eyeball at intervals of 45 μm so that the optic nerve papilla was included. Among these 8 sections, 3 sections were selected randomly, and a selected section was photographed for the retina of 700 to 900 μm in width with its center being located about 1.25 mm from the optic nerve papilla, using which the cell count in the retinal ganglion cell layer (hereinafter referred to also as “GCL cell count”) was calculated (average value). From the resultant GCL cell count, a % GCL cell count reduction inhibition of each test substance was calculated according to Equation 1 while assigning 100% to the non-treatment group and 0% to a group of 10 nmol NMDA given intravitreously+base given orally. Each group included 4 animals (7 to 8 eyeballs).
% GCL cell count reduction inhibition=(NX−NO)/(NU−NO)×100 [Equation 1] […]

| SMILES | % NFL Recovery (%, average) [1] [%] | Weight gain compared with the non-treatment group (in words) [2] | Weight gain (average) [2] | % Inhibition of GLC cell count reduction [3] [%] |
| --- | --- | --- | --- | --- |
| O=C(O)c1[nH]c2cc(Cl)cc(Cl)c2c1/C=C1\CCN(c2ccccc2)C1=O [Compound B′, sodium (E)-4,6-dichloro-3-((2-oxo-1-phenyl-3-pyrrolidinylidene)methyl)-1H-indole-2-carboxylate] | 80.7 | weight gain almost equivalent to that in the non-treatment group | 14.0 | 14.8 |
| CC12CC3CC(C)(C1)CC(N)(C3)C2 [memantine, reference compound] | 33.6 | inhibited the weight gain | −3.6 | 20.7 |
| O=C(/C=C/c1c(C(=O)O)[nH]c2cc(Cl)cc(Cl)c12)Nc1ccccc1 [Compound A′, Sodium (E)-4,6-dichloro-3-(3-oxo-3-(phenylamino)-1-propenyl)-1H-indole-2-carboxylate] | 86.6 | weight gain almost equivalent to that in the non-treatment group | 12.6 | 17.0 |
